Measured values: ChEMBL document CHEMBL1136713, “Structure-activity relationships of acetylcholinesterase noncovalent inhibitors based on a polyamine backbone. 2. Role of the substituents on the phenyl ring and nitrogen atoms of caproctamine” (J Med Chem, 2003)

Tests used:
[1] = target: T1, Acetylcholinesterase (Homo sapiens, UniProt P22303)
Description: Inhibitory concentration against acetylcholinesterase from human erythrocytes

[2] = target: Cholinesterase (Homo sapiens, UniProt P06276)
Description: Inhibitory concentration against butyrylcholinesterase from human serum

[3] = Apparent dissociation constant of compound was evaluated; type: ADME
[4] = species: Cavia porcellus
Description: Ability to reverse the D-tubocurarine-induced neuromuscular blockade in guinea pig left atrium

[5] = target: T2, Muscarinic acetylcholine receptor M2 (Homo sapiens) (UniProt P08172); test: Antagonistic potency of compound towards Muscarinic acetylcholine receptor M2 in guinea pig left atrium; type: functional, tissue-based; conditions: Cavia porcellus; Cardiac atrium; target entry is the homologue from another species
T2 sequence (whole entry): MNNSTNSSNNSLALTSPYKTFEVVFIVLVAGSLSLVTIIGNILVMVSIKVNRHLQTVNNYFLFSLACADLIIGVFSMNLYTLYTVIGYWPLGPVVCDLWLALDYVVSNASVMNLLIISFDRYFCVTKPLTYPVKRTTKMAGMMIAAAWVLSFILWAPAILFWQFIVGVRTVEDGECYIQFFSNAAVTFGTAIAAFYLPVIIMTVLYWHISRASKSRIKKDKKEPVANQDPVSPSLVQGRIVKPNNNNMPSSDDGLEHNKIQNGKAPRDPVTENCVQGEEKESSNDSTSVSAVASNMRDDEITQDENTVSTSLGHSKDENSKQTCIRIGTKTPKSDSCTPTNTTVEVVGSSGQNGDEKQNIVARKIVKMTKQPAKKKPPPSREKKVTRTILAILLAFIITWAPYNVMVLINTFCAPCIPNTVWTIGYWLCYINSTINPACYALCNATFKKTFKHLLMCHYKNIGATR

[6] = target: T1, Acetylcholinesterase; remark: listed apart in the source
Description: Inhibitory concentration of compound against acetylcholinesterase from human erythrocytes at pH=7.5

[7] = target: T1, Acetylcholinesterase; remark: listed apart in the source
Description: Inhibitory concentration of compound against acetylcholinesterase from human erythrocytes at pH=7.0

[8] = target: T1, Acetylcholinesterase; remark: listed apart in the source
Description: Inhibitory concentration of compound against acetylcholinesterase from human erythrocytes at pH=8.0

[9] = target: T1, Acetylcholinesterase; remark: listed apart in the source
Description: Inhibitory activity of compound against acetylcholinesterase from human erythrocytes

T1 sequence (P22303 whole entry): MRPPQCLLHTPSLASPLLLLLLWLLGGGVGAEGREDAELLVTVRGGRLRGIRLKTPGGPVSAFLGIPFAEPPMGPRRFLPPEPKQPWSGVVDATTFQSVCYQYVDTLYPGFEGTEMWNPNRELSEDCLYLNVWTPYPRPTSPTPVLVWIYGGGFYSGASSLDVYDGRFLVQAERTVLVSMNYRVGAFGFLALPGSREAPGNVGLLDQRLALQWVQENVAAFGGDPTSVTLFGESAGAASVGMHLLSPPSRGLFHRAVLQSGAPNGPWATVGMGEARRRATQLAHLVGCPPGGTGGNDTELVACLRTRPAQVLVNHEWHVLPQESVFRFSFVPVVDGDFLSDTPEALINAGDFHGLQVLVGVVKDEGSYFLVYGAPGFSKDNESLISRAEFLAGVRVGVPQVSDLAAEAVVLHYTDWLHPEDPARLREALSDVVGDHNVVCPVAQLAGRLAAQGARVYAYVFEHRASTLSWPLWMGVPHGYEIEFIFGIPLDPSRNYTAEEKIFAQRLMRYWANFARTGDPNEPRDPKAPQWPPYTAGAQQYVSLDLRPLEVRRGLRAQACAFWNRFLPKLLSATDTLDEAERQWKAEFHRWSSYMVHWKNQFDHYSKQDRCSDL
Sequence of Cholinesterase (P06276 whole entry): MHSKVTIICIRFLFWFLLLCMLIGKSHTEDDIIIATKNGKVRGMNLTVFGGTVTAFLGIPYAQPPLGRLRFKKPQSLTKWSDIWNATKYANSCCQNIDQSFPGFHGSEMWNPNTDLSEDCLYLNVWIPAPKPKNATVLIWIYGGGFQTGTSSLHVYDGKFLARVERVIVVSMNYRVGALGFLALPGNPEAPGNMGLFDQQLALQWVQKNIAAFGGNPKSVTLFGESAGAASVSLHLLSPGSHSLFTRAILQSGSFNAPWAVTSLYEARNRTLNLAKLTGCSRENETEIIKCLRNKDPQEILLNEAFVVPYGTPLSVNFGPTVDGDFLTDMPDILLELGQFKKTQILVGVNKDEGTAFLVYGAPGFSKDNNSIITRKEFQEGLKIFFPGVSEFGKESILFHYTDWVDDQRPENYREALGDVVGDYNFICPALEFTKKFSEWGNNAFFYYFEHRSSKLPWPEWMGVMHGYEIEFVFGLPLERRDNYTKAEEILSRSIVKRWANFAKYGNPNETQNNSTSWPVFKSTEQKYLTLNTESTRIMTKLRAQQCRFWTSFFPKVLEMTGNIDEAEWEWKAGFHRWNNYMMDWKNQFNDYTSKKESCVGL

Row | Compound | IC50 [1] [nM] | IC50 [2] [nM] | pKa [3] | pAI50 [4] | pKb [5] | IC50 [6] [nM] | IC50 [7] [nM] | IC50 [8] [nM] | Ki [9] [nM]
1 | CC[N+](C)(CCCCCC(=O)N(C)CCCCCCCCN(C)C(=O)CCCCC[N+](C)(CC)Cc1ccccc1C)Cc1ccccc1C (configuration not stated) | 16.6 | 6460 |  |  |  |  |  |  | 
2 | CCN(CCCCCC(=O)N(C)CCCCCCCCN(C)C(=O)CCCCCN(CC)Cc1ccccc1C)Cc1ccccc1C | 56.2 | 7410 | 7.46 | 6.35 |  |  |  |  | 
3 | CCN(CCCCCC(=O)N(C)CCCCCCCCN(C)C(=O)CCCCCN(CC)Cc1ccccc1C(F)(F)F)Cc1ccccc1C(F)(F)F | 4570 | 166000 | 6.15 | 6.84 | < 5 |  |  |  | 
4 | CC[N+](C)(CCCCCC(=O)N(C)CCCCCCCCN(C)C(=O)CCCCC[N+](C)(CC)Cc1ccccc1)Cc1ccccc1 (configuration not stated) | 37.2 | 2510 |  |  |  |  |  |  | 
5 | COc1ccc(CN(C)CCCCCC(=O)N(C)CCCCCCCCN(C)C(=O)CCCCCN(C)Cc2ccc(OC)cc2)cc1 | 5750 | 5500 |  |  |  |  |  |  | 
6 | CC[N+](C)(CCCCCC(=O)N(C)CCCCCCCCN(C)C(=O)CCCCC[N+](C)(CC)Cc1ccccc1[N+](=O)[O-])Cc1ccccc1[N+](=O)[O-] (configuration not stated) | 12.3 | 2400 |  |  |  | 12.9 | 12.6 | 12.3 | 
7 | COc1ccccc1CN(C)CCCCCC(=O)N(C)CCCCCCCCN(C)C(=O)CCCCCN(C)Cc1ccccc1OC [CAPROCTAMINE] |  |  |  | 5.79 | 6.39 |  |  |  | 104
8 | CCN(CCCCCC(=O)N(C)CCCCCCCCN(C)C(=O)CCCCCN(CC)Cc1ccccc1Cl)Cc1ccccc1Cl | 112 | 4070 | 6.92 | 7.19 | 5.61 |  |  |  | 
9 | CC[N+](C)(CCCCCCOCCCCCCCCOCCCCCC[N+](C)(CC)Cc1ccccc1OC)Cc1ccccc1OC (configuration not stated) | 77.6 | 759 |  |  |  |  |  |  | 
10 | CCN(CCCCCC(=O)N(C)CCCCCCCCN(C)C(=O)CCCCCN(CC)Cc1ccccc1OC)Cc1ccccc1OC | 18.6 | 2240 | 7.8 | 6.45 | 5.65 | 17.4 | 16.2 | 18.6 | 12.2
11 | CCN(CCCCCC(=O)N(C)CCCCCCCCN(C)C(=O)CCCCCN(CC)Cc1ccccc1)Cc1ccccc1 | 49 | 1070 | 7.42 | 6.32 |  |  |  |  | 
12 | CC[N+](C)(CCCCCC(=O)N(CCCCCCCCN(C(=O)CCCCC[N+](C)(CC)Cc1ccccc1OC)C(C)C)C(C)C)Cc1ccccc1OC (configuration not stated) | 8.13 | 1660 |  |  |  |  |  |  | 
13 | CCN(CCCCCCOCCCCCCCCOCCCCCCN(CC)Cc1ccccc1OC)Cc1ccccc1OC | 204 | 2630 |  |  |  |  |  |  | 
14 | CC[N+](C)(CCCCCC(=O)N(C)CCCCCCCCN(C)C(=O)CCCCC[N+](C)(CC)Cc1ccccc1OC)Cc1ccccc1OC (configuration not stated) | 12 | 1410 |  | 7.21 |  | 11 | 11 | 12 | 
15 | CCCOc1ccccc1CN(CC)CCCCCC(=O)N(C)CCCCCCCCN(C)C(=O)CCCCCN(CC)Cc1ccccc1OCCC | 33.9 | 166 | 7.75 | 6.19 |  |  |  |  | 
16 | COc1ccccc1CN(CCCCCC(=O)N(C)CCCCCCCCN(C)C(=O)CCCCCN(Cc1ccccc1OC)C(C)C)C(C)C | 72.4 | 871 |  |  |  |  |  |  | 
17 | CNC(=O)Oc1ccc2c(c1)[C@]1(C)CCN(C)[C@@H]1N2C [PHYSOSTIGMINE] |  |  |  | 6.5 |  |  |  |  | 
18 | CCCOc1ccccc1C[N+](C)(CC)CCCCCC(=O)N(C)CCCCCCCCN(C)C(=O)CCCCC[N+](C)(CC)Cc1ccccc1OCCC (configuration not stated) | 17.4 | 83.2 |  |  |  |  |  |  | 
19 | CCN(CCCCCC(=O)N(CCCCCCCCN(C(=O)CCCCCN(CC)Cc1ccccc1OC)C(C)C)C(C)C)Cc1ccccc1OC | 18.2 | 2140 |  |  |  |  |  |  | 
20 | CCN(CCCCCC(=O)N(C)CCCCCCCCN(C)C(=O)CCCCCN(CC)Cc1ccccc1[N+](=O)[O-])Cc1ccccc1[N+](=O)[O-] | 794 | 55000 | 6.26 | 5.93 |  | 79.4 | 32.4 | 794 | 
21 | CC[N+](C)(CCCCCC(=O)N(C)CCCCCCCCN(C)C(=O)CCCCC[N+](C)(CC)Cc1ccccc1C(F)(F)F)Cc1ccccc1C(F)(F)F (configuration not stated) | 11.7 | 7590 |  |  |  |  |  |  | 
22 | CC[N+](C)(CCCCCC(=O)N(C)CCCCCCCCN(C)C(=O)CCCCC[N+](C)(CC)Cc1ccccc1Cl)Cc1ccccc1Cl (configuration not stated) | 19.5 | 2570 |  |  |  |  |  |  | 
23 | COc1cccc(CN(C)CCCCCC(=O)N(C)CCCCCCCCN(C)C(=O)CCCCCN(C)Cc2cccc(OC)c2)c1 | 676 | 8320 |  |  |  |  |  |  | 
